Results on six compounds are retold here after patent US4826814A, “Tripeptide derivatives” (Dainippon Pharmaceutical Co., Ltd., priority 1986, dated 1989).

Each structure is given as a SMILES string. Starred links: 1 amine or outer side, 2 acyl side, 3 side chain; linkers in the order of their positions; H or OH if unused. Non-standard residues stand in square brackets, D forms with d. Residues, ends and D or L forms follow the SMILES beside them. *: point of attachment. d(γGlu) = O=C(O)[C@@H](CCC(=O)[*:2])N[*:1]; Oic = O=C(O)[C@@H]1C[C@@H]2CCCC[C@@H]2N1; Nicotinoyl = O=C(c1cccnc1)*; Cbz = O=C(OCc1ccccc1)*

In data set [1] the test system is Male STD-ddy strain mice. Kind of data set: Toxicity: oral LD50 in mice. It counts as in vivo. An excerpt:
Male STD-ddy strain mice weighing about 22 to 25 g were used.

Data set [2] has as its target T1, ACE preparation (rabbit lung) (Oryctolagus cuniculus, UniProt P12822).
T1 construct: an ACE preparation (rabbit lung); from tissue; host or cells: rabbit lung
T1 sequence (P12822 34-1310): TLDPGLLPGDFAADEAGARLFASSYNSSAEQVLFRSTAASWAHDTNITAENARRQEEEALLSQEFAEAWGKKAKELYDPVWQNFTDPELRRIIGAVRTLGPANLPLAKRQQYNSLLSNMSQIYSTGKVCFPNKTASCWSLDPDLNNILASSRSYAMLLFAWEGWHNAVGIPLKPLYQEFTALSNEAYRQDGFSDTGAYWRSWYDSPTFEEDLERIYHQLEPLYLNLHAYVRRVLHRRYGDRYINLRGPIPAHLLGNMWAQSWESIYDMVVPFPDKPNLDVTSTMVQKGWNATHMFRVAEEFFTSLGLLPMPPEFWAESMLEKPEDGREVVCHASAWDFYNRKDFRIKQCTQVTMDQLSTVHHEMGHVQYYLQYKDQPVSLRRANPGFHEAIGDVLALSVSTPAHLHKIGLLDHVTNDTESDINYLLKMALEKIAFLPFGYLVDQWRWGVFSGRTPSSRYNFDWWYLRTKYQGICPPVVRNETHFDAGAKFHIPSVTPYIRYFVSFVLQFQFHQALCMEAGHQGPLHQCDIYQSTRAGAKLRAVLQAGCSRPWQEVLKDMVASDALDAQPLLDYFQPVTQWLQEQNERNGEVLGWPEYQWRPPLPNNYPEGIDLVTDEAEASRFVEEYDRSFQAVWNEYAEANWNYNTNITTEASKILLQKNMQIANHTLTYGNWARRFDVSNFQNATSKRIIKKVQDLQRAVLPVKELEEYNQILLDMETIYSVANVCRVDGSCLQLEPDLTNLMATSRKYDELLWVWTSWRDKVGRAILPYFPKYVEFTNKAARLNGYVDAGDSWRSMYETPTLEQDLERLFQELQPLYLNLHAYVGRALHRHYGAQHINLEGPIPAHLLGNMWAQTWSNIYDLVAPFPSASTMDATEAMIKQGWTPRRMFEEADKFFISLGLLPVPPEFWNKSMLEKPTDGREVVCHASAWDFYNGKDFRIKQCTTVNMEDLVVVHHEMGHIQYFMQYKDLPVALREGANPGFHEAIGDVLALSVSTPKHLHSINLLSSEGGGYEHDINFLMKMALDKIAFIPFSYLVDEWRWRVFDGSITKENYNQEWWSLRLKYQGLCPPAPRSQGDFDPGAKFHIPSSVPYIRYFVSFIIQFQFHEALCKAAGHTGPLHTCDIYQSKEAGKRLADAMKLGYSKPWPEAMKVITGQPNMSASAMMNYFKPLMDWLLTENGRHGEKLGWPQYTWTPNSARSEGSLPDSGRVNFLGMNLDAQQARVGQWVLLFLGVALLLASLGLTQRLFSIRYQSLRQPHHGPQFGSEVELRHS
Kind of data set: In vitro ACE inhibitory activity (hippuryl-L-histidyl-L-leucine substrate). Type of data set: biochemical. Particulars: 37° C., 30 minutes, pH 8.3. On the procedure:
The assay medium contained an ACE preparation (rabbit lung), synthetic substrate (hippuryl-L-histidyl-L-leucine 5 mM), NaCl (300 mM) and phosphate buffer (100 mM, pH 8.3). It was mixed to a final volume of 0.300 ml and incubated at 37° C. for 30 minutes in the presence or absence of test compounds. After the reaction was terminated by adding 300 μl of 1N HCl, hippuric acid formed was extracted with 2 volume of ethyl acetate. After ethyl acetate was evaporated and distilled water was added, the hippuric acid was determined from its absorbance at 228 nm by spectrophotometer (Hitachi 100-41).
The degree of ACE inhibition was calculated from activities with and without test compounds. The IC50 value (molar concentration required for the 50% inhibition of ACE activity) was obtained from a dose-inhibition curve.

Data set [3] has as its target angiotensin converting enzyme (ACE) (Homo sapiens, UniProt P12821). Particulars: stated by the publication of Ksander et al.; cited from earlier work.
For data set [4], the system named is renal hypertensive rats. Kind of data set: Antihypertensive activity after single oral administration in two-kidney Goldblatt type renal hypertensive rats (tail-cuff blood pressure). Type of data set: in vivo, rat. As to conditions: for Charge in pressure at 9 hours administration: blood pressure, renal hypertensive rats, single oral administration; for antihypertensive action after oral administration: in vivo test with rats. An excerpt: Male Sprague Dawley rats (5 weeks old) were subjected to constriction of the left renal artery with a silver clip (internal diameter: 0.22 mm) under light ether anesthesia. The right kidney and renal artery were left intact. About 6-10 weeks after clipping, rats showing a blood pressure above 180 mmHg were used. These treated rats are named two-kidney Goldblatt type renal hypertensive rats and considered as a typical model of reninangiotensin dependent hypertension.
The blood pressure was measured by a tail-cuff method using a programmed electro-sphygmomanometer (PE-300, Narco Biosystem, U. S. A.) after warming at 38° C. for 10 minutes in heating box.
The antihypertensive activity of test compounds was evaluated after single oral administration in renal hypertensive rats (3-5 rats/group).

Sequence of angiotensin converting enzyme (ACE) (P12821 30-1306, species assumed): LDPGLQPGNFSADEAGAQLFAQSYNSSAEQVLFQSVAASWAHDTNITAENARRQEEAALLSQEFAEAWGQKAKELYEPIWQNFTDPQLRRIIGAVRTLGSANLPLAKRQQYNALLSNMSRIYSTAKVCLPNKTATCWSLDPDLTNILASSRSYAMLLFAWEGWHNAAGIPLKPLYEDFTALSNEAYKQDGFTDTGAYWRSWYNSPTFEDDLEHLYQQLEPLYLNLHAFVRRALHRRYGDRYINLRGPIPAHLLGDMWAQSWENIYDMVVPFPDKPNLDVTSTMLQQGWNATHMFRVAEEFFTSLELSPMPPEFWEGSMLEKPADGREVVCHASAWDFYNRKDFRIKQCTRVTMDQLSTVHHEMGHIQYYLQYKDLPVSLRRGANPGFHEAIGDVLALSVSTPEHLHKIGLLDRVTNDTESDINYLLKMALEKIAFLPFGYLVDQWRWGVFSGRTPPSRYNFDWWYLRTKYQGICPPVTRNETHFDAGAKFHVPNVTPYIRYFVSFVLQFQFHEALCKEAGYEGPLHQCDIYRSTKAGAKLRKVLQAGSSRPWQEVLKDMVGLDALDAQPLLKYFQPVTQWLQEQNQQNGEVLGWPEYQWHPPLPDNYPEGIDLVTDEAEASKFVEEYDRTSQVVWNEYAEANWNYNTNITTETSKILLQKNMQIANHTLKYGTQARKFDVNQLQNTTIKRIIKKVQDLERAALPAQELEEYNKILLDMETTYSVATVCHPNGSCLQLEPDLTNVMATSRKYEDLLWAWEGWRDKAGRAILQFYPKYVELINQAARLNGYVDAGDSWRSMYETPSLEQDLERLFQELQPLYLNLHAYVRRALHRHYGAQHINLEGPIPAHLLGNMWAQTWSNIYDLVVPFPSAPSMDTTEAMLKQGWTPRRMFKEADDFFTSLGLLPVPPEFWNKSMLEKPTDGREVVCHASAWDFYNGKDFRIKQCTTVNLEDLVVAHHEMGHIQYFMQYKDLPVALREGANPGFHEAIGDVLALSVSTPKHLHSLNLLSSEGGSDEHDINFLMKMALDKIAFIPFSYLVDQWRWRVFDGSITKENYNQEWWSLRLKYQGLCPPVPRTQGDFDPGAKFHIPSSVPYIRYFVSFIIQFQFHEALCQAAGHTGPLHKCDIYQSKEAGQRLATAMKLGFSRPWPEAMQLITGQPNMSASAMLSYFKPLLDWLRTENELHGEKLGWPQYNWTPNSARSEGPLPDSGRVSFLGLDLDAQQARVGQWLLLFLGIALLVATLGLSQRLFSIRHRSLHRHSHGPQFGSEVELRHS

Take `NCCCC[C@H](NC(=O)c1ccc(O)cc1)C(=O)N[C@H](CCC(=O)N1[C@H](C(=O)O)C[C@@H]2CCCC[C@@H]21)C(=O)O` [Example 51, (2S,3aS,7aS)-1-[N^2-(4-Hydroxybenzoyl)-L-lysyl-gamma-D-glutamyl)octahydro-1H-indole-2-carboxylic acid]: in data set [1], the “oral LD50” value is recorded as “more than 3,000 mg per kilogram of body weight”. Further, the half-maximal inhibitory concentration (IC50) (commonly the concentration needed to halve the response being measured) in data set [2] is 5.2 nM.
In the case of `NCCCC[C@H](NC(=O)c1cccnc1)C(=O)N[C@H](CCC(=O)N1[C@H](C(=O)O)C[C@@H]2CCCC[C@@H]21)C(=O)O` [Example 15, (2S,3aS,7aS)-1-(N^2 -Nicotinoyl-L-lysyl-gamma-D-glutamyl)octahydro-1H-indole-2-carboxylic acid] (Nicotinoyl-Lys-[d(γGlu)]-[Oic]-OH), the “oral LD50” value in data set [1] is listed as “more than 3,000 mg per kilogram of body weight”. The same compound yielded an IC50 in data set [2] of 6.4 nM.
Consider `O=C(NCCCC[C@H](NC(=O)OCc1ccccc1)C(=O)N[C@H](CCC(=O)N1c2ccccc2C[C@H]1C(=O)O)C(=O)O)OCc1ccccc1` [1-(N^2,N^6dibenzyloxycarbonyl-L-lysyl-γ-D-glutamyl)indoline-2(S)carboxylic acid, reference compound], for which the “in vitro inhibition of ACE” value in data set [3] is “show in vitro inhibition of ACE”. Besides, the “Charge in pressure at 9 hours administration” value (“Charge in pressure” below) in data set [4] (dose of 30 mg/kg) was -2. Besides, the “antihypertensive action after oral administration” value in data set [4] is “do not show any significant antihypertensive action”.
Turning to `NCCCC[C@H](N)C(=O)N[C@H](CCC(=O)N1c2ccccc2C[C@H]1C(=O)O)C(=O)O` [1-(L-lysyl-γ-D-glutamyl)indoline-2(S)carboxylic acid, reference compound], the “in vitro inhibition of ACE” value in data set [3] is “show in vitro inhibition of ACE”. Further, the “antihypertensive action after oral administration” value in data set [4] is given as “do not show any significant antihypertensive action”. The 50% inhibitory concentration (IC50) in data set [2] came out at 18.8 nM.
Take `NCCCC[C@H](NC(=O)OCc1ccccc1)C(=O)N[C@H](CCC(=O)N1[C@H](C(=O)O)C[C@@H]2CCCC[C@@H]21)C(=O)O` [Example 11, (2S,3aS,7aS)-1-(N^2 -Benzyloxycarboxyl-L-lysyl-gamma-D-glutamyl)octahydro-1H-indole-2-carboxylic acid] (Cbz-Lys-[d(γGlu)]-[Oic]-OH): the “Charge in pressure” value in data set [4] (dose of 10 mg/kg) is on record as -37.
Turning to `NCCCC[C@H](NC(=O)C1CCC1)C(=O)N[C@H](CCC(=O)N1[C@H](C(=O)O)C[C@@H]2CCCC[C@@H]21)C(=O)O` [Example 18, (2S,3aS,7aS)-1-(N^2 -Cyclobutanecarbonyl-L-lysl-gamma-D-glutamyl)octahydro-1H-indole-2-carboxylic acid], the “Charge in pressure” value in data set [4] (dose of 10 mg/kg) is listed as -42.
